The text below walks through data of article PMC10386196, “A First-Class Degrader Candidate Targeting Both KRAS G12D and G12V Mediated by CANDDY Technology Independent of Ubiquitination” (Molecules, 2023).

The target in series [1] is proteasome β2 (Homo sapiens, UniProt Q99436). Nature of the series: Inhibition of proteasome β2 (trypsin-like) activity, Bz-VGR-AMC substrate. It is filed as biochemical. The following applies: SE in parentheses, n = 2. How it is done: (§1) Reaction time (min) Reaction time (min)
(§2) Figure S1. Proteasome Inhibitors Modified as Degradation Tags, Related to Figures 2
(§3) (A) Chymotrypsin-like (β5) , trypsin-like (β2) and caspase-like (β1) activities of the pr oteasome were monitor ed by Suc- LLVY-
(§4) AMC (β5 substrate) , Bz- VGR-AMC (β2 substr ate) and Z -LLE-AMC (β1 substrate), respectively. AMC fluorescence was
(§5) m onitor ed by a plate reader with excitation and emission filter s of 360 nm and 460 nm, respectively (DMSO, 30 min = 1) […]

Series [2] has as its target proteasome β1 (Homo sapiens, UniProt P28072). Nature of the series: Inhibition of proteasome β1 (caspase-like) activity, Z-LLE-AMC substrate. It is filed as biochemical. To be noted: SE in parentheses, n = 2. On the procedure: as §1, §2, §3, §4, §5
For series [3], the target named is proteasome β5 (Homo sapiens, UniProt P28074). Nature of the series: Inhibition of proteasome β5 (chymotrypsin-like) activity, Suc-LLVY-AMC substrate. To be noted: SE in parentheses, n = 2. The series is classed as biochemical. On the procedure:
as §1, §2, §3, §4, §5

Series [4] addresses T1, ecDHFR (Escherichia coli, UniProt P0ABQ4).
T1 construct: expressed in transfected cells; host or cells: HeLa cells (bicistronic construct co-expressing DsRed)
Kind of series: Cellular thermal shift assay (CETSA) for ecDHFR in HeLa cells. The series is classed as binding. The following applies: ecDHFR-HA-GFP-expressing HeLa cells, 3 h treatment. On the procedure:
Figure 2 Proof of principle for the CANDDY Strategy. (A) Structures of degraders 1–3 constructed with TMP and each degradation tag (CANDDY_MLN, CANDDY_ALLN, or CANDDY_BTZ). (B) Comparison of proteasomal inhibitory activity of b2 by 1–3 and each proteasome inhibitor. […] Cell extraction was treated with heat for 3 min and then analyzed via immunoblotting. (D) Degradation rates of ecDHFR by 1–3. The same procedure as in (E) was performed except for 24 h. (E) ecDHFR degradation by 1 for 24 h. The ratio of ecDHFR-HA-GFP/DsRed was detected via flow cytometry.

Series [5] has as its target T1, ecDHFR. The series is classed as cell-based.
Method: Cell extraction was treated with heat for 3 min and then analyzed via immunoblotting. […] The same procedure as in (E) was performed except for 24 h. […] The ratio of ecDHFR-HA-GFP/DsRed was detected via flow cytometry.
HeLa cells co-expressed ecDHF R- HA-GF P and DsRed from a bicistronic construct.
(C) HeLa cells co-expressed ecDHFR-HA-GFP and DsRed from a bicistronic construct. Target-expressing HeLa cells were
treated with a CANDDY molecule (1).
Series [6] deals with β5/β2/β1 of the proteasome (Homo sapiens, UniProt P28072+P28074+Q99436). Kind of series: Proteasomal inhibitory activity, stated in words for all subunits. The series is classed as biochemical. To be noted: listed as TMP-CANDDY_MLN (1). How it is done: as §1, §2, §3, §4, §5
The target of series [7] is KRAS G12D. Also noted: method as in PMID 22566140. To be noted: cited from earlier work.
In series [8] the target is T2, KRAS G12D (Homo sapiens, UniProt P01116, G12D). Kind of series: KRAS degradation in a cell-free system with 26S proteasome. The series is classed as biochemical. The following applies: only 26S proteasome and target protein, 3 h at 37 °C. On the procedure:
KRAS G12D (final concentration: 5 ng/µL) and 26S proteasome (final concentration: 8 nM) were incubated with TUS-007 (10, 20, 40 µM), RAS-SOS inhibitor (40 µM), RAS-SOS-NH2 (40 µM), or DMSO in 20 mM Tris-HCl buffer (pH 7.5) containing 20% glycerol for 3 h at 37 °C. To assess the effect of MLN on chemical knockdown, KRAS G12D and 26S proteasome were incubated with DMSO or TUS-007 40 µM in the presence or absence of MLN (1 µM) in the same condition. After centrifugation at 14,000× g for 10 min, the supernatants were analyzed via SDS-PAGE, followed by immunoblotting using an anti-KRAS antibody (1:1000, WH0003845MI, Sigma-Aldrich).

Series [9] can be described thus: Solubility (statement in words). It is filed as physicochemical. The following applies: reason not used as in vivo control.
In series [10] the target is T3, KRAS G12V (Homo sapiens, UniProt P01116, G12V).
T3 construct: expressed in transfected cells; host or cells: HeLa cells
Kind of series: KRAS G12V-HA-GFP degradation in HeLa cells. It is filed as cell-based. The following applies: exogenously expressed, flow cytometry and immunoblotting. On the procedure: (§6) Figure 3 RAS Chemical Knockdown in vitro. (A) Structures of RAS-SOS inhibitor (4), RAS-SOS-NH2 (5), and TUS-007 as a RAS degrader. (B,C) Assessing the binding affinity of TUS-007 to targets KRAS (G12D, G12V, or wild-type) (B) and proteasome β5 (C) using CETSA. Recombinant KRAS or PSMB5 was treated with vehicle, 4, or TUS-007 for 30 min. The mixture was treated with heat and then analyzed via immunoblotting. […] KRAS-HA-GFP and DsRed-expressing HeLa cells were treated and analyzed via immunoblotting. (F) The same procedure was performed as in (D) (mean ± SEM; n = 3) except for 48 h. (G) Ubiquitination-independent proteasomal KRAS G12D degradation. KRAS G12D-HA-GFP and DsRed-expressing HeLa cells were co-treated with TUS-007 and the NAE inhibitor ([…], […]) or PYR-41 (E1 inhibitor, […]) and then analyzed via flow cytometry. […]
(§7) β5 activity β2 activity β1 activity […]
(§8) Figure S3. Proteasomal Inhibitory Activities of TUS-007 and Degradation of KRAS by TUS-007, Related to Figure 3 […]
(§9) Degradation of mutant (G12D and G12V) and wild- type KRAS pr oteins by TUS- 007 was rescued by treatment with the proteasome inhibitor M LN2238 ([…]). […] KRAS G12D-HA-GFP and DsRed-expressing HeLa cells were co-treated with TUS-007 and 17-AAG (HSP90 inhibitor, 2 ∝M), or VER-155008 (HSP70 inhibitor , 2 ∝M) for 24 h and then analyzed by flow cytometry.

Series [11] has as its target T2, KRAS G12D. Nature of the series: KRAS G12D-HA-GFP degradation in HeLa cells. The series is classed as cell-based. Also on record: expressed in transfected cells; host or cells: HeLa cells. The following applies: exogenously expressed, flow cytometry and immunoblotting. How it is done:
as §6, §7, §8, §9
Target sequence in this assay (P01116 1-188 isoform P01116-2 G12D): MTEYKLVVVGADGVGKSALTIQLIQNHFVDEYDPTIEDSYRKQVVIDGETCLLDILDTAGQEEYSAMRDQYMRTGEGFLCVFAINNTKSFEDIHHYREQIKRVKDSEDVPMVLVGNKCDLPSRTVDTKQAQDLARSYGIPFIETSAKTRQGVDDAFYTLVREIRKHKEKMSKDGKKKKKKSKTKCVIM

The target of series [12] is T4, wild-type KRAS (Homo sapiens, UniProt P01116).
T4 construct: expressed in transfected cells; host or cells: HeLa cells
Kind of series: Wild-type KRAS-HA-GFP degradation in HeLa cells. It is filed as cell-based. The following applies: exogenously expressed, flow cytometry and immunoblotting. How it is done: as §6, §7, §8, §9

Square brackets hold non-standard residues; d marks the D form. Peptide text beside a SMILES is read from it. Nle = CCCC[C@H](N)C(=O)O Where only a bound is given, the exact number is not on record here.

T1 sequence (P0ABQ4 whole entry): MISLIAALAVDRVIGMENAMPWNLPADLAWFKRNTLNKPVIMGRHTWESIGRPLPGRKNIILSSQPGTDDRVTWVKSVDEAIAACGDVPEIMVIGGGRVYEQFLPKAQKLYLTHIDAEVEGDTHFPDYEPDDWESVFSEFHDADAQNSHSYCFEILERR
T4 sequence (P01116 1-188 isoform P01116-2): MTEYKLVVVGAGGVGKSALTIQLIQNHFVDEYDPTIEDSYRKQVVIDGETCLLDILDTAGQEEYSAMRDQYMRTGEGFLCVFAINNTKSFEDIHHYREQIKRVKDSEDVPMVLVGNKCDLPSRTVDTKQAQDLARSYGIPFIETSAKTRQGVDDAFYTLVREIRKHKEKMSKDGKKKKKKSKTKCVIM
T3 sequence (P01116 1-188 isoform P01116-2 G12V): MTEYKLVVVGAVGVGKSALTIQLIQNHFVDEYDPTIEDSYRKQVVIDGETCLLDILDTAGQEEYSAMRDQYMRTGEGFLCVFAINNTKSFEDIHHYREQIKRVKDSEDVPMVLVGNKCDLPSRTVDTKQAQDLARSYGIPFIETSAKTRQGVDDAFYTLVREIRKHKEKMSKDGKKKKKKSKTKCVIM

On to `CCCC[C@@H](C=O)NC(=O)[C@H](CC(C)C)NC(=O)[C@H](CC(C)C)NC(C)=O` [ALLN, reference compound] (Ac-Leu-Leu-[Nle]-aldehyde), for which the IC50 in series [1] turned out to be 4.3 µM; in series [2] it was 9.8 µM; in series [3], 1 µM.

Consider `CC(C)C[C@H](NC(=O)CNC(=O)c1cc(Cl)ccc1Cl)B(O)O` [MLN2238, reference compound], for which the half-inhibitory concentration (IC50) in [1] was 8.9 µM; in [2] it was 0.029 µM.

Take `COc1cc(Cc2cnc(N)nc2N)cc(OC)c1OCC(=O)NCCCCCCNC(=O)[C@H](CC(C)C)NC(=O)CNC(=O)c1cc(Cl)ccc1Cl` [compound 1]: the “target affinity for ecDHFR compared with TMP (CETSA)” value in series [4] was “more efficient”. For the same compound, the IC50 in [1], in [2] and in [3] was greater than 160 µM in each case. In addition, the ecDHFR degradation result in series [5] (HeLa cells, 24 h, immunoblotting and flow cytometry (GFP/DsRed)) is “highest target degradation efficiency”. In addition, the “time dependence of ecDHFR degradation” value in series [5] (HeLa cells, flow cytometry) is on record as “time-dependent ecDHFR degradation”. Moreover, in [5] (co-treatment with NAE inhibitor (E3) or PYR-41 (E1), flow cytometry), the “ecDHFR degradation on co-treatment with inhibitors of E1 or E3” value is on record as “did not inhibit ecDHFR degradation”. The “proteasomal inhibitory activity (β5, β2, β1)” value in series [6] is recorded as “almost no proteasomal inhibitory activity”.

With `CCCC[C@H](NC(=O)[C@H](CC(C)C)NC(=O)[C@H](CC(C)C)NC(C)=O)C(=O)NCCCCCCNC(=O)COc1c(OC)cc(Cc2cnc(N)nc2N)cc1OC` [compound 2], in [4], the “target affinity for ecDHFR compared with TMP (CETSA)” value is recorded as “more efficient”. Moreover, the figures for the half-maximal inhibitory concentration (IC50) in series [1], in series [2] and in series [3] were greater than 160 µM, greater than 160 µM and 46.2 µM, respectively.

`COc1cc(Cc2cnc(N)nc2N)cc(OC)c1OCC(=O)NCCCCCCNC(=O)[C@H](CC(C)C)NC(=O)[C@H](Cc1ccccc1)NC(=O)c1cnccn1` [compound 3]: the “target affinity for ecDHFR compared with TMP (CETSA)” value in [4] is reported as “lower”. The IC50 in series [1], in series [2] and in series [3] was greater than 160 µM in each case.

`CC[C@H](C)[C@H](N)C(=O)Nc1ccc2nc(Cc3c[nH]c4ccccc34)[nH]c2c1` [compound 4, reference compound]: the dissociation constant Kd in series [7] is 190 µM. Besides, in series [8], the “degradation of KRAS G12D in cell-free system” value is given as “not”. For the same compound, in series [9], the solubility entry was “low solubility”.

Take `CC[C@H](C)[C@H](NC(=O)CCCCCCN)C(=O)Nc1ccc2[nH]c(Cc3c[nH]c4ccccc34)nc2c1` [compound 5]: the “KRAS G12V degradation in HeLa cells” value in [10] is recorded as “no degradation”. Also, the “KRAS G12D degradation in HeLa cells” value in series [11] is listed as “no degradation”. Also, in series [8], the “degradation of KRAS G12D in cell-free system” value is given as “not”. In addition, in series [9], the solubility result was “low solubility”. In [12], the “wild-type KRAS degradation in HeLa cells” value is recorded as “no degradation”.
